Columns and labels:
MALME-3M = test: in vitro melanoma cell growth inhibition (NCI screen)
UACC-257 = test: as above
HL-60(TB) = test: in vitro leukemia cell growth inhibition (NCI screen)
K-562 = test: as above
COLO-205 = test: in vitro colon cancer cell growth inhibition (NCI screen)
HCT-116 = test: as above
HCT-15 = test: as above
HT 29 = test: as above
KM 12 = test: as above
SW 620 = test: as above
RXF-393 = test: in vitro renal cancer cell growth inhibition (NCI screen)
OVCAR-3 = test: in vitro ovarian cancer cell growth inhibition (NCI screen)
MDA-MB-435 = test: in vitro breast cancer cell growth inhibition (NCI screen)
MDA-N = test: as above
PC-3 = test: in vitro prostate cancer cell growth inhibition (NCI screen)
NCI-H522 = test: in vitro non-small cell lung cancer cell growth inhibition (NCI screen)
M19-MEL = test: in vitro melanoma cell growth inhibition (NCI screen)
SK-MEL-5 = test: as above
UACC-62 = test: as above
CCRF-CEM = test: in vitro leukemia cell growth inhibition (NCI screen)
SF-539 = test: in vitro CNS cancer cell growth inhibition (NCI screen)
XF-498 = test: as above
ACHN = test: in vitro renal cancer cell growth inhibition (NCI screen)
UO-31 = test: as above
SK-MEL-2 = test: in vitro melanoma cell growth inhibition (NCI screen)
HOP-92 = test: in vitro non-small cell lung cancer cell growth inhibition (NCI screen)
NCI-H23 = test: as above
NCI-H460 = test: as above
human tumor cell lines = assay type: cell-based; details: Homo sapiens; cancer cell panel, general / most cell lines; read-out: logGI50 values in the cancer cell line panel (converted)
RPMI-8226 = test: in vitro leukemia cell growth inhibition (NCI screen)
SR = test: as above
SNB-75 = test: in vitro CNS cancer cell growth inhibition (NCI screen)
DLD-1 = test: in vitro colon cancer cell growth inhibition (NCI screen)
IGROV1 = test: in vitro ovarian cancer cell growth inhibition (NCI screen)
OVCAR-8 = test: as above
LOX1MVI = test: in vitro melanoma cell growth inhibition (NCI screen)
MOLT-4 = test: in vitro leukemia cell growth inhibition (NCI screen)
LXFL 529 = test: in vitro non-small cell lung cancer cell growth inhibition (NCI screen)
M14 = test: in vitro melanoma cell growth inhibition (NCI screen)
OVCAR-4 = test: in vitro ovarian cancer cell growth inhibition (NCI screen); details: OVACR-4
MCF7/ADR-RES = test: in vitro breast cancer cell growth inhibition (NCI screen)
T-47D = test: as above

Compound	cytotoxicity log GI50 (MALME-3M) [M]	cytotoxicity log GI50 (UACC-257) [M]	cytotoxicity log GI50 (HL-60(TB)) [M]	cytotoxicity log GI50 (K-562) [M]	cytotoxicity log GI50 (COLO-205) [M]	cytotoxicity log GI50 (HCT-116) [M]	cytotoxicity log GI50 (HCT-15) [M]	cytotoxicity log GI50 (RXF-393) [M]	cytotoxicity log GI50 (OVCAR-3) [M]	cytotoxicity log GI50 (MDA-MB-435) [M]	cytotoxicity log GI50 (NCI-H522) [M]	cytotoxicity log GI50 (M19-MEL) [M]	cytotoxicity log GI50 (SK-MEL-5) [M]	cytotoxicity log GI50 (UACC-62) [M]	cytotoxicity log GI50 (SF-539) [M]	cytotoxicity log GI50 (XF-498) [M]	cytotoxicity log GI50 (UO-31) [M]	cytotoxicity log GI50 (SK-MEL-2) [M]	cytotoxicity log GI50 (NCI-H23) [M]	cytotoxicity log GI50 (SR) [M]	further results
CCCC(=O)NC1=C(NCC)C(=O)c2ccccc2C1=O [Compound 46]	-4.41	-4.40	-4.39	-4.29	-4.44	-4.36	-4.40	-4.32	-4.47	-4.60	-4.59										cytotoxicity log GI50 (HT 29): -4.36 M; cytotoxicity log GI50 (KM 12): -4.28 M; cytotoxicity log GI50 (SW 620): -4.48 M; cytotoxicity log GI50 (MDA-N): -4.68 M; cytotoxicity log GI50 (PC-3): -4.39 M
CC(=O)NC1=C(NCC(C)(C)C)C(=O)c2ccccc2C1=O [Compound 38]	-4.46	-4.30	-4.49	-4.42	-4.41	-4.47	-4.26	-4.43	-4.26		-4.72	-4.68	-4.40	-4.41	-4.48	-4.59	-4.33				cytotoxicity log GI50 (CCRF-CEM): -4.42 M; cytotoxicity log GI50 (ACHN): -4.57 M
Cc1nc2c(n1CC(C)C)C(=O)c1ccccc1C2=O [Compound 7]	-4.69	-4.75	-4.64	-4.52		-4.68			-4.60		-4.58	-4.80	-4.73	-4.68	-4.61		-4.58	-4.59	-4.74		cytotoxicity log GI50 (HOP-92): -4.99 M; cytotoxicity log GI50 (NCI-H460): -4.63 M
COC(=O)CCCC(=O)NC1=C(Nc2ccccc2)C(=O)c2ccccc2C1=O [Compound 52]	-5.45								-4.90	-5.26				-5.49					-4.97		cytotoxicity log GI50 (KM 12): -5.28 M; cytotoxicity log GI50 (MDA-N): -5.41 M
O=C(Cc1ccc(F)cc1)NC1=C(Cl)C(=O)c2ccccc2C1=O [Compound 2j]	-5.67		-7.56				-5.64	-5.75							-5.65	-5.71			-5.89	-6.88	GI50 (human tumor cell lines): 0.0251 to 2.51 µM; cytotoxicity log GI50 (RPMI-8226): -7.07 M; cytotoxicity log GI50 (SNB-75): -5.66 M; cytotoxicity log GI50 (DLD-1): -5.62 M; cytotoxicity log GI50 (SW 620): -5.68 M; cytotoxicity log GI50 (ACHN): -5.70 M; cytotoxicity log GI50 (IGROV1): -5.73 M; cytotoxicity log GI50 (OVCAR-8): -5.71 M; cytotoxicity log GI50 (HOP-92): -5.72 M
CCC(C)(C)n1c(C)nc2c1C(=O)c1ccccc1C2=O [Compound 12]			-5.12	-4.87	-4.77	-4.87	-4.64	-4.68				-4.80	-4.80	-4.87		-4.77		-4.73		-5.03	cytotoxicity log GI50 (LOX1MVI): -4.71 M; cytotoxicity log GI50 (MOLT-4): -4.73 M; cytotoxicity log GI50 (DLD-1): -4.81 M; cytotoxicity log GI50 (NCI-H460): -4.91 M; cytotoxicity log GI50 (LXFL 529): -4.86 M
CCn1c(-c2ccccc2)nc2c1C(=O)c1ccccc1C2=O [Compound 25]	-5.06	-5.41			-4.85			-4.81	-5.23	-4.80	-4.82		-4.95								GI50 (human tumor cell lines): ~10 µM; cytotoxicity log GI50 (M14): -4.81 M; cytotoxicity log GI50 (MOLT-4): -4.83 M; cytotoxicity log GI50 (SNB-75): -4.61 M; cytotoxicity log GI50 (HT 29): -5.05 M; cytotoxicity log GI50 (OVCAR-4): -4.90 M; cytotoxicity log GI50 (MCF7/ADR-RES): -4.88 M; cytotoxicity log GI50 (T-47D): -5.65 M; cytotoxicity log GI50 (OVCAR-8): -4.85 M; cytotoxicity log GI50 (PC-3): -4.99 M
CCC(C)(C)NC1=C(NC(C)=O)C(=O)c2ccccc2C1=O [Compound 36]	-4.54	-4.69	-4.78	-4.68		-4.75		-4.60			-4.99	-4.88	-4.87	-4.60	-4.61	-4.84	-4.56	-4.68	-4.72	-4.50	cytotoxicity log GI50 (LOX1MVI): -4.53 M; cytotoxicity log GI50 (CCRF-CEM): -4.77 M; cytotoxicity log GI50 (MOLT-4): -4.86 M; cytotoxicity log GI50 (ACHN): -4.82 M
CCC(CC)n1c(C)nc2c1C(=O)c1ccccc1C2=O [Compound 10]	-4.58	-4.62	-4.97	-4.68	-4.57	-4.71	-5.04		-4.59			-4.83	-4.80	-4.99			-4.71	-4.56	-4.67	-4.59	cytotoxicity log GI50 (LOX1MVI): -4.71 M; cytotoxicity log GI50 (SNB-75): -4.69 M; cytotoxicity log GI50 (DLD-1): -4.61 M; cytotoxicity log GI50 (HOP-92): -4.65 M; cytotoxicity log GI50 (NCI-H460): -4.68 M; cytotoxicity log GI50 (LXFL 529): -4.71 M

Reference: patent publication US5789431A, “Naphthoquinone antitumor compound and method” (The University of North Carolina at Chapel Hill, priority 1996, dated 1998)
